From US20250313572A1, “MACROCYCLIC MCL-1 INHIBITORS AND METHODS OF USE” (AbbVie Inc., priority 2017, published 2025) come the findings set out here.

As usually defined, the Ki is a dissociation constant, usually derived from enzyme kinetics or from competition with a known ligand.

Where two headings read alike, the source gives them in different places. Marks after values point to notes of the source that are not given here. Where only a bound is given, the exact number is not on record here.

Assay [1] deals with AMO-1 xenograft. The experiment in a line: AMO-1 xenograft model of multiple myeloma. In kind it is in vivo, female SCID/bg mice. As to conditions: 25 mg/kg/day, IP/QDx1. The procedure: Tumors were size matched at approximately 200 mm^3. […] Tumor volume was estimated two to three times weekly. […] Seven or eight mice were housed per cage. Food and water were available ad libitum.
Tumor growth inhibition is calculated by 100*(1−Tv/Cv) where Tv and Cv are the mean tumor volumes of the treated and control groups, respectively.

Assay [2] deals with GST-MCL-1 (Homo sapiens, UniProt Q07820). As to the kind of experiment: TR-FRET MCL-1 binding assay (competition with probe F-Bak). The essentials: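 Displacement of F-Bak from GST-MCL-1 is detected by time-resolved FRET with a Tb-labelled anti-GST antibody, with excitation 340/35 nm and emission 520/525 and 495/510 nm, after 2 hours at room temperature. Compounds were titrated in 11 three-fold steps starting at 25 μM final, in buffer alone or in 10% HS.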
GST-MCL-1, sequence (Q07820 whole entry): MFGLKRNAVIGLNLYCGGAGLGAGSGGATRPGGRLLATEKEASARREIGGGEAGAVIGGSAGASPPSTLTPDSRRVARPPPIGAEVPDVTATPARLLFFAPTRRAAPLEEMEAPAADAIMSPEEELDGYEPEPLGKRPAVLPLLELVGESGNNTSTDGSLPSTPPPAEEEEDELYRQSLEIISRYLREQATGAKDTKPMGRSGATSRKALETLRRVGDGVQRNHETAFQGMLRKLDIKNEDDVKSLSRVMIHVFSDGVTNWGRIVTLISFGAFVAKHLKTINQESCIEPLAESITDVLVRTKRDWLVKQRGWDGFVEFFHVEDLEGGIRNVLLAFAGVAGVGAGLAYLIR
For orientation: Time-resolved FRET reads energy transfer from a long-lived donor to a nearby acceptor.

Assay [3] concerns NCI-H929 human multiple myeloma tumor cell line. The experiment in a line: NCI-H929 cell viability assay (CellTiter-Glo, 24 hours). The class given is cell-based. The settings on record: Homo sapiens, NCI-H929, 24 h, read-out: H929 Viability IC50 (μM, 10% FBS), 10% FBS, 24 hours of compound treatment. (In general: Cellular ATP, detected with luciferase, serves as a proxy for viable cell number.)

Assay [4] has as its system AMO-1 human multiple myeloma tumor cell line. As to the kind of experiment: AMO-1 cell viability assay (CellTiter-Glo, 24 hours). The class given is cell-based. As to conditions: Homo sapiens, AMO1, 24 h, read-out: AMO-1 Viability IC50 (μM, 10% FBS), 10% FBS, 24 hours of compound treatment.
Where [5] appears, read: MCL-1 Binding Ki (nM, 10% HS), in the presence of 10% HS (human serum).
[6] abbreviates: without HS, read-out: MCL-1 Binding Ki.

As to `COCCOCCOCCOCCN1CCN(C[C@@H]2COc3ccc(OCc4ccnc(-c5ccccc5OC)n4)c(c3)C[C@H](C(=O)O)Oc3ncnc4sc(-c5ccc(F)cc5)c(c34)-c3ccc(c(Cl)c3C)O2)CC1` (atropisomer, axis not shown) [Example 4, (7R,16R,21S)-19-chloro-1-(4-fluorophenyl)-10-{[2-(2-methoxyphenyl)pyrimidin-4-yl]methoxy}-20-methyl-16-{[4-(2,5,8,11-tetraoxatridecan-13-yl)piperazin-1-yl]methyl}-7,8,15,16-tetrahydro-18,21-etheno-13,9-(metheno)-6,14,17-trioxa-2-thia-3,5-diazacyclononadeca[1,2,3-cd]indene-7-carboxylic Acid], the “TGD (%)” value in assay [1] is recorded as 33* %. Moreover, in assay [1], the “TGImax (%)” value is reported as 54* %. Further, the Ki in assay [2] (setting [5]) worked out at 0.052 nM; in assay [2] (setting [6]), 0.007 nM. Moreover, the IC50 in assay [3] came out at 0.011 µM; in assay [4] it was 0.007 µM.

For the molecule `COCCOCCOCCN1CCN(C[C@@H]2COc3ccc(OCc4ccnc(-c5ccccc5OC)n4)c(c3)C[C@H](C(=O)O)Oc3ncnc4sc(-c5ccc(F)cc5)c(c34)-c3ccc(c(Cl)c3C)O2)CC1` (atropisomer, axis not shown) [Example 5, (7R,16R,21S)-19-chloro-1-(4-fluorophenyl)-16-[(4-{2-[2-(2-methoxyethoxy)ethoxy]ethyl}piperazin-1-yl)methyl]-10-{[2-(2-methoxyphenyl)pyrimidin-4-yl]methoxy}-20-methyl-7,8,15,16-tetrahydro-18,21-etheno-13,9-(metheno)-6,14,17-trioxa-2-thia-3,5-diazacyclononadeca[1,2,3-cd]indene-7-carboxylic Acid], in assay [1], the “TGD (%)” value is 17* %. Also, in assay [1], the “TGImax (%)” value is 55* %. In addition, the Ki in assay [2] (setting [5]) stood at 0.057 nM; in assay [2] (setting [6]) it was 0.009 nM. Also, the IC50 is 0.008 µM in assay [3] and 0.004 µM in assay [4].

For the molecule `Cc1c(Cl)c2c(Cl)c(C)c1-c1c(-c3ccc(F)cc3)sc3ncnc(c13)O[C@@H](C(=O)O)Cc1cc(ccc1OCc1ccnc(-c3ccc(OC[C@H]4CN(C)CCCO4)cc3)n1)OC[C@@H](CN1CCN(C)CC1)O2` [Example 175, (7R,16R)-19,23-dichloro-1-(4-fluorophenyl)-20,22-dimethyl-10-{[2-(4-{[(2R)-4-methyl-1,4-oxazepan-2-yl]methoxy}phenyl)pyrimidin-4-yl]methoxy}-16-[(4-methylpiperazin-1-yl)methyl]-7,8,15,16-tetrahydro-18,21-etheno-13,9-(metheno)-6,14,17-trioxa-2-thia-3,5-diazacyclononadeca[1,2,3-cd]indene-7-carboxylic Acid], the Ki in assay [2] (setting [5]) was 0.122 nM; in assay [2] (setting [6]), under 0.01 nM. In addition, the IC50 in assay [3] amounted to 0.00573 µM; in assay [4] it was 0.00164 µM.

Take `COCCOCCOCCOc1cncc(COc2ccc3cc2C[C@H](C(=O)O)Oc2ncnc4sc(-c5ccc(F)cc5)c(c24)-c2c(C)c(Cl)c(c(Cl)c2C)O[C@H](CN2CCN(C)CC2)CO3)n1` [Example 176, (7R,16R)-19,23-dichloro-1-(4-fluorophenyl)-10-[(6-{2-[2-(2-methoxyethoxy)ethoxy]ethoxy}pyrazin-2-yl)methoxy]-20,22-dimethyl-16-[(4-methylpiperazin-1-yl)methyl]-7,8,15,16-tetrahydro-18,21-etheno-13,9-(metheno)-6,14,17-trioxa-2-thia-3,5-diazacyclononadeca[1,2,3-cd]indene-7-carboxylic Acid]: the values for the Ki in assay [2] (setting [5]) and in assay [2] (setting [6]) were 0.868 nM and 0.151 nM, respectively. Further, the IC50 in assay [3] was found to be 0.0073 µM; in assay [4] it was 0.00386 µM.
